Measured values: ChEMBL document CHEMBL1132131, “Dopamine-selective response in membrane potential by homooxacalix[3]arene triether host incorporated in PVC liquid membrane” (Bioorg Med Chem Lett, 1999)

What was measured:
[1] = Selectivity of guest-induced changes in membrane potential at pH 5.0 for PVC matrix liquid membranes incorporated with o-Tolyloxy-acetic acid ethyl ester polymer; type: ADME
[2] = Selectivity of guest-induced changes in membrane potential at pH 5.0 for PVC matrix liquid membrane without any host; type: ADME
[3] = Selectivity of guest-induced changes in membrane potential at pH 5.0 for PVC matrix liquid membranes incorporated with (2-Butoxy-5-tert-butyl-3-methyl-phenyl)-methanol polymer; type: ADME
[4] = Selectivity of guest-induced changes in membrane potential at pH 5.0 for PVC matrix liquid membranes incorporated with o-Tolyloxy-acetic acid decyl ester polymer; type: ADME
[5] = Selectivity of guest-induced changes in membrane potential(Kpot A,B) at pH 5.0 for PVC matrix liquid membranes incorporated with 6,7,9,10,17,18,20,21-Octahydro-5,8,11,16,19,22-hexaoxa-dibenzo[a,j]cyclooctadecene; type: ADME
[6] = Partition coefficient (logP); type: physicochemical; settings: octanol/water
[7] = Selectivity of guest-induced changes in membrane potential at pH 5.0 for PVC matrix liquid membranes incorporated with 6,7,9,10,17,18,20,21-Octahydro-5,8,11,16,19,22-hexaoxa-dibenzo[a,j]cyclooctadecene; type: ADME

Row | SMILES | Kpot A,B [1] | Kpot A,B [2] | Kpot A,B [4] | Kpot A,B [5] | logP [6] | Kpot A,B [7] | Kpot A,B [3]
1 | NCc1ccccc1 [BENZYLAMINE] | 0.15 | 0.78 | 0.15 | 0.9 | – | – | 0.45
2 | NC12CC3CC(CC(C3)C1)C2 [AMANTADINE] | < 0.01 | 1.2 | < 0.01 | – | 1.77 | 14.8 | 1.85
3 | CCCCCCCCN | 3.52 | 1.68 | 2.58 | – | 2.93 | 19 | 2.01
4 | NCCc1ccccc1 [PHENETHYLAMINE] | 1 | 1 | 1 | – | 1.58 | 1 | 1

Now from value to compound, other results behind:

Row | Kpot A,B [1] | Kpot A,B [2] | Kpot A,B [4] | Kpot A,B [5] | logP [6] | Kpot A,B [7] | SMILES | Kpot A,B [3]
5 | 1 | 1 | 1 | – | 0.82 | – | NCCc1ccc(O)c(O)c1 [DOPAMINE] | 1
6 | < 0.01 | 0.56 | < 0.01 | – | 0.72 | 0.4 | CC(C)(C)N [TERT-BUTYLAMINE] | 0.31
7 | 0.09 | 0.65 | 0.089 | – | 0.59 | – | CNC[C@H](O)c1ccc(O)c(O)c1 [EPINEPHRINE] | < 0.01
8 | – | – | – | – | 0.82 | – | NC[C@H](O)c1ccc(O)c(O)c1 [NOREPINEPHRINE] | –
